Measured values from US7074789B2, “Kinase inhibitors” (Amgen Inc., priority 1999, dated 2006).

Legend:
Assay type in all cases: biochemical
[1] = biological target: T1, Lck (Homo sapiens, UniProt P06239); assay: Kinase inhibition assay (33P transfer), Lck; conditions: Table 3; read-out: Lck-1
T1 construct: Kinases are expressed as either kinase domains or full length constructs; made in house
In short: (§1)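 Recombinant kinase-domain or full-length fusion proteins (GST or His tag) served as enzyme. Substrate poly(Glu,Tyr) 4:1 or poly(Arg,Ser) 3:1 was bound to the plate; transferred 33P was read by liquid scintillation following acid washing.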

[2] = biological target: T2, Lyn (Homo sapiens, UniProt P07948); assay: Kinase inhibition assay (33P transfer), Lyn; conditions: Table 6, Lyn-1 kinase inhibition class
T2 construct: Kinases are expressed as either kinase domains or full length constructs; made in house
In short: (§2)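 GST/His-fusion kinases, E. coli or High Five expressed, affinity purified; 33P-ATP, plate-coated poly(Glu,Tyr) 4:1 or poly(Arg,Ser) 3:1; 0.5% H3PO4 wash, scintillant, LSC.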

[3] = biological target: T3, Src (Homo sapiens, UniProt P12931); assay: Kinase inhibition assay (33P transfer), Src; conditions: Table 6, Src-1 kinase inhibition class
T3 construct: Kinases are expressed as either kinase domains or full length constructs; made in house
In short: as §2

[4] = biological target: T4, Itk (Homo sapiens, UniProt Q08881); assay: Kinase inhibition assay (33P transfer), Itk; conditions: Table 3; read-out: Itk-1
T4 construct: Kinases are expressed as either kinase domains or full length constructs; made in house
T4 sequence (Q08881 1-620): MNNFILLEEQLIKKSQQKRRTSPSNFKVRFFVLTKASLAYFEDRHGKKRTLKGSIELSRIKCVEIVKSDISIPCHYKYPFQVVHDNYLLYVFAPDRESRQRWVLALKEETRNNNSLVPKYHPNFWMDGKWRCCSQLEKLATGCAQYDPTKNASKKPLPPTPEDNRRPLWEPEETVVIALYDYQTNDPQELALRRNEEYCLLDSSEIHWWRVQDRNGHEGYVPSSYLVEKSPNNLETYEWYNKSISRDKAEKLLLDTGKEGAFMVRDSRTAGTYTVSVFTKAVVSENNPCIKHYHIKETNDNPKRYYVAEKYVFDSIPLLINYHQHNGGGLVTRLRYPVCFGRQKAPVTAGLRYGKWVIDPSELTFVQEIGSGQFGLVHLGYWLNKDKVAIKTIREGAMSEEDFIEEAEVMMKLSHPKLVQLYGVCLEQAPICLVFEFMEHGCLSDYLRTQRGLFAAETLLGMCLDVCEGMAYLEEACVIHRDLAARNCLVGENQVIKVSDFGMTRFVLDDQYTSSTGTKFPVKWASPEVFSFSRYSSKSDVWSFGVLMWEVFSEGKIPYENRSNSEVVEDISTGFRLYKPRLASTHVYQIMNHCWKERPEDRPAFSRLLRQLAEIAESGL
In short: as §2

[5] = biological target: T5, EGFR (Homo sapiens, UniProt P00533); assay: Kinase inhibition assay (33P transfer), EGFR; conditions: Table 2, kinase inhibition class; read-out: EGFR-1
T5 construct: Kinases are expressed as either kinase domains or full length constructs; made in house
In short: as §2

[6] = biological target: T6, ErbB2 (Homo sapiens, UniProt P04626); assay: Kinase inhibition assay (33P transfer), ErbB2; conditions: read-out: ErbB2-2
T6 construct: Kinases are expressed as either kinase domains or full length constructs; made in house
In short: as §2

[7] = biological target: T7, Flt-1 (Homo sapiens, UniProt P17948); assay: Kinase inhibition assay (33P transfer), Flt-1
T7 construct: Kinases are expressed as either kinase domains or full length constructs; made in house
In short: as §2

[8] = biological target: T8, Tek (Homo sapiens, UniProt Q02763); assay: Kinase inhibition assay (33P transfer), Tek; conditions: read-out: Tek-1
T8 construct: Kinases are expressed as either kinase domains or full length constructs; made in house
In short: as §2

[9] = biological target: T9, c-Met (Homo sapiens, UniProt P08581); assay: Kinase inhibition assay (33P transfer), c-Met; conditions: Table 2, kinase inhibition class; read-out: Met-1
T9 construct: Kinases are expressed as either kinase domains or full length constructs; made in house
In short: as §2

[10] = biological target: T10, AKT (Homo sapiens, UniProt Q9Y243); assay: Kinase inhibition assay (33P transfer), AKT; conditions: Table 2, kinase inhibition class; read-out: AKT3-1
T10 construct: Kinases are expressed as either kinase domains or full length constructs; made in house
In short: as §1

[11] = biological target: T11, Hck-1 (Homo sapiens, UniProt P08631); assay: Kinase inhibition assay (33P transfer), Hck; conditions: Table 6, Hck-1 kinase inhibition class
T11 construct: Kinases are expressed as either kinase domains or full length constructs; made in house

[12] = biological target: T12, ErbB4 (Homo sapiens, UniProt Q15303); assay: Kinase inhibition assay (33P transfer), ErbB4; conditions: read-out: ErbB4-1
T12 construct: Kinases are expressed as either kinase domains or full length constructs; made in house

[13] = biological target: T13, Ret-1 (Homo sapiens, UniProt P07949); assay: Kinase inhibition assay (33P transfer), Ret; conditions: Table 6, Ret-1 kinase inhibition class
T13 construct: Kinases are expressed as either kinase domains or full length constructs; made in house

[14] = biological target: T14, FGFR1 (Homo sapiens, UniProt P11362); assay: Kinase inhibition assay (33P transfer), FGFR1; conditions: read-out: FGFR1-1
T14 construct: Kinases are expressed as either kinase domains or full length constructs; made in house
T14 sequence (P11362 22-822, species assumed): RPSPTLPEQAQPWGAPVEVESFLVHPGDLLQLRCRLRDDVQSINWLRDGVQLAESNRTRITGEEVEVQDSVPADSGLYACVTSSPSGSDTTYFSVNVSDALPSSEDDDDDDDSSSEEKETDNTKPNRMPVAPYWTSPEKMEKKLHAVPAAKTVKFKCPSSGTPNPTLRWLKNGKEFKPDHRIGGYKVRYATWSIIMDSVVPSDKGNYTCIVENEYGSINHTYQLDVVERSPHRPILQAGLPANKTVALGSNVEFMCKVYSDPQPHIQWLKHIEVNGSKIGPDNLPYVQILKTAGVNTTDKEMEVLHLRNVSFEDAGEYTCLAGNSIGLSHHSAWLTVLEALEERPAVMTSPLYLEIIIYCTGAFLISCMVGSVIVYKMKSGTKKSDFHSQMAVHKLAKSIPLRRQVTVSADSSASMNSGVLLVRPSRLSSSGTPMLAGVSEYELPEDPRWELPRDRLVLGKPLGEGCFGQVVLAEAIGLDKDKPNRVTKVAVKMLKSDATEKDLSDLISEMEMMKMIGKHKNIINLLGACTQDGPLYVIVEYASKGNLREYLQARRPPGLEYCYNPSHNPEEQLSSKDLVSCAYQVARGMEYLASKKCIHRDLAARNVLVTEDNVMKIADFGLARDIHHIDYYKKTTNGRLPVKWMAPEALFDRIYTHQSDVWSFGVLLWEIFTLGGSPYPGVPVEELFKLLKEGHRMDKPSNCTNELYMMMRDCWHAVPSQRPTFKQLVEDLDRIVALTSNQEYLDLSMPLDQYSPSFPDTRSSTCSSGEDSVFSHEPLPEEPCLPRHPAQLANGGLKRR

T8 sequence (Q02763 23-1124, species assumed): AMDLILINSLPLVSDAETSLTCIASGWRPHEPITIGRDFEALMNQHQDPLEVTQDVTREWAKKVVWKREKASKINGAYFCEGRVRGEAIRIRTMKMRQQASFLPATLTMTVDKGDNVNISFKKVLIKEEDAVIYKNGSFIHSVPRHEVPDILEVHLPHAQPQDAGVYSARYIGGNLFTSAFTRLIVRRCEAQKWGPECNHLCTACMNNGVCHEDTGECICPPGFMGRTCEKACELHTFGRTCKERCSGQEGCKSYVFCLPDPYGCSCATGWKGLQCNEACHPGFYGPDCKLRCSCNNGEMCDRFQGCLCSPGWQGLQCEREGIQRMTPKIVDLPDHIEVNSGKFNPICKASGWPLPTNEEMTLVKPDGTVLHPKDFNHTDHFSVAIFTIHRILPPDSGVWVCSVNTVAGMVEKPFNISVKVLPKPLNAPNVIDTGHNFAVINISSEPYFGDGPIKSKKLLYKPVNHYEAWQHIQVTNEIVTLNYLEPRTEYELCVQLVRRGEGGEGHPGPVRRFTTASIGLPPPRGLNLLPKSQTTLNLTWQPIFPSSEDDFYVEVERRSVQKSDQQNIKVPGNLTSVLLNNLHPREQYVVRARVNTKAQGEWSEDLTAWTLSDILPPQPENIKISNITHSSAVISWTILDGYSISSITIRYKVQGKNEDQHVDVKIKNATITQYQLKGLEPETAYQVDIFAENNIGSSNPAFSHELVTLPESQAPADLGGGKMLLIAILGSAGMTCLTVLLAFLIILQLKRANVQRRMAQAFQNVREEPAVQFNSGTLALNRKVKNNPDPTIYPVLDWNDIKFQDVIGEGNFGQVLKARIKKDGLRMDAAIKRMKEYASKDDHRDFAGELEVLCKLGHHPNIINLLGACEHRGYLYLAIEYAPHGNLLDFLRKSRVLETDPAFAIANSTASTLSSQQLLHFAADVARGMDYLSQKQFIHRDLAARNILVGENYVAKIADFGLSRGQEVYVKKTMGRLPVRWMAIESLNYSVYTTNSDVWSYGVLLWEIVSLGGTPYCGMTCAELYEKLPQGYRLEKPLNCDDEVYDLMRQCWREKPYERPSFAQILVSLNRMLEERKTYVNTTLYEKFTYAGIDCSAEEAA
T10 sequence (Q9Y243 whole entry, the tested form may be a part): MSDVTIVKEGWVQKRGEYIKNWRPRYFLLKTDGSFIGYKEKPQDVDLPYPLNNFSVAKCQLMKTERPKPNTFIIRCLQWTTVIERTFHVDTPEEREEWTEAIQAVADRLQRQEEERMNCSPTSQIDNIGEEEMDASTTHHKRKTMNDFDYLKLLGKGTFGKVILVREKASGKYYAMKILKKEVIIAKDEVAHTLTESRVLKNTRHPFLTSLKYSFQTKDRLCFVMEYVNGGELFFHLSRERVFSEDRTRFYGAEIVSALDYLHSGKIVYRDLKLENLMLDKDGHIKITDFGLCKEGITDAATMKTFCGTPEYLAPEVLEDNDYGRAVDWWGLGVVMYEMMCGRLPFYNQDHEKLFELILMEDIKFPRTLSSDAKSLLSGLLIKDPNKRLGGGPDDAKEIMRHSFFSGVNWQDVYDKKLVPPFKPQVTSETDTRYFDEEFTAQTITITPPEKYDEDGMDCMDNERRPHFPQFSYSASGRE
T13 sequence (P07949 29-1114): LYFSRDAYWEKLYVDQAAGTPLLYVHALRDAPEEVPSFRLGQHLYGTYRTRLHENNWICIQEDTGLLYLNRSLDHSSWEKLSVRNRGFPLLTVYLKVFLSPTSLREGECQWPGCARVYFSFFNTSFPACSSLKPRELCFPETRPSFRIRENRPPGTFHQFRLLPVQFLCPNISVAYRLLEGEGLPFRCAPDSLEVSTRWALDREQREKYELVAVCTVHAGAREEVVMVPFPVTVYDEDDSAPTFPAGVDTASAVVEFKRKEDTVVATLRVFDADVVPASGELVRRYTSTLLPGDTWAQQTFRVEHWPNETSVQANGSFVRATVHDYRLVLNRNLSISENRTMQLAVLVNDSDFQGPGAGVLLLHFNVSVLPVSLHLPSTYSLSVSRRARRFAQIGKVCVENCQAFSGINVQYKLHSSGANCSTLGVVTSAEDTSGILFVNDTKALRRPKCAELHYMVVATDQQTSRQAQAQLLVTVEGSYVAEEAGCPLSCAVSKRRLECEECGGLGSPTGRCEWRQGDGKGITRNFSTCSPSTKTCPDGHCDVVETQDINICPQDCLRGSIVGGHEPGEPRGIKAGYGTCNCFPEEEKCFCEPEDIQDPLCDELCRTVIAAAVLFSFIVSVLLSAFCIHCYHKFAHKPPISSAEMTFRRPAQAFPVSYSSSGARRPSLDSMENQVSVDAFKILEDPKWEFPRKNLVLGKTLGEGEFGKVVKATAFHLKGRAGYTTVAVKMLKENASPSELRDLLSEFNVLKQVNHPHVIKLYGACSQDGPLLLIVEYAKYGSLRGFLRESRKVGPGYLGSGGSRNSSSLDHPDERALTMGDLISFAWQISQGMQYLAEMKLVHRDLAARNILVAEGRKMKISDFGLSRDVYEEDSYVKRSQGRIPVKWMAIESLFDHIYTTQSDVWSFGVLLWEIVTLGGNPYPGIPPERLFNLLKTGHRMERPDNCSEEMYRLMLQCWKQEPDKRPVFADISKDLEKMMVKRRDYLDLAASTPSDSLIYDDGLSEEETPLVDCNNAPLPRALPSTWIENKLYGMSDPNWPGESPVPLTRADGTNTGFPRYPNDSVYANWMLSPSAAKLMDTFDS
T12 sequence (Q15303 26-1308, species assumed): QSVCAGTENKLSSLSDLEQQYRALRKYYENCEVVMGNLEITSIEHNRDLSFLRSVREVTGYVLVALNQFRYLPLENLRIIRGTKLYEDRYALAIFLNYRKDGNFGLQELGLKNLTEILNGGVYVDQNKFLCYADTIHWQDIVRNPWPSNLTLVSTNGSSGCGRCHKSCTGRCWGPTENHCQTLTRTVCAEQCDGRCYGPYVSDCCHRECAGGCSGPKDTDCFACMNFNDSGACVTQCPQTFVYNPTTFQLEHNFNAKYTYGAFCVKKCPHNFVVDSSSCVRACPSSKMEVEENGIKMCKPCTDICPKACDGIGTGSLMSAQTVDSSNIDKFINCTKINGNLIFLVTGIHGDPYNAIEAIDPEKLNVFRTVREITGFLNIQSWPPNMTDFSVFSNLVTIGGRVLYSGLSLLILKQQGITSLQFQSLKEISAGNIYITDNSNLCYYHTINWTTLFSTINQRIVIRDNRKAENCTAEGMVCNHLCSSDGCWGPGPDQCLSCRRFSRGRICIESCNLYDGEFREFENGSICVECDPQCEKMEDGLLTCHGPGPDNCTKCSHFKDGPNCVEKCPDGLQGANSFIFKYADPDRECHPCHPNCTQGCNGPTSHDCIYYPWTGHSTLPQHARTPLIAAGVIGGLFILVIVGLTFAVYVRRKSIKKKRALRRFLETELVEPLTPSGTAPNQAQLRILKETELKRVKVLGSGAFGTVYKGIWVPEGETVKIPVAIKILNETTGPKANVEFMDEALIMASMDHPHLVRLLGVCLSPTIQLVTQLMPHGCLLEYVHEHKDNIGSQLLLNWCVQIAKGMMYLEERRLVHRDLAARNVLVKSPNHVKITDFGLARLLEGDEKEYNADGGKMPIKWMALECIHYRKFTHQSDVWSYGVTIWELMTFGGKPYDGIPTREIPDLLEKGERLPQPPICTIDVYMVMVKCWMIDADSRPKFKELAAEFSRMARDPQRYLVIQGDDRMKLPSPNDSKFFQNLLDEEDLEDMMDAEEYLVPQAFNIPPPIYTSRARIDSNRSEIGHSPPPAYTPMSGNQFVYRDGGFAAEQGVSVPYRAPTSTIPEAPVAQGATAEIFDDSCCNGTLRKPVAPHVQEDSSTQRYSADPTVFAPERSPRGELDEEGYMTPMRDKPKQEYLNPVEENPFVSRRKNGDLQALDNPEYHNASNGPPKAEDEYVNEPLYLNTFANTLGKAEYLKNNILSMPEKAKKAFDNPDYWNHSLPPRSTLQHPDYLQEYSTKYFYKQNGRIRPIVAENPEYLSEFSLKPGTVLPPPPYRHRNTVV

IC50 [1] [µM]	IC50 [2] [nM]	IC50 [3] [µM]	IC50 [4] [µM]	IC50 [5] [µM]	IC50 [6] [nM]	IC50 [7] [µM]	IC50 [8] [µM]	IC50 [9] [µM]	IC50 [10] [µM]	IC50 [11] [µM]	IC50 [12] [µM]	IC50 [13] [µM]	IC50 [14] [µM]	Compound
0.991 to 5.95	991 to 5950	5.95 to 8.68	> 11.2	0.991 to 5.95	< 991	8.68 to 11.2	> 11.2	> 11.2	> 11.2	8.68 to 11.2	0.991 to 5.95	5.95 to 8.68	> 11.2	COc1cc(Nc2ncnc(Nc3ccc4ccccc4c3)n2)cc(OC)c1OC [Compound 96]
8.65 to 11.1	989 to 5930	> 11.1	> 11.1	> 11.1	> 11100	5.93 to 8.65	> 11.1	> 11.1	> 11.1	> 11.1	> 11.1	0.989 to 5.93	5.93 to 8.65	COc1cc(Nc2ncnc(Nc3cccc4cccnc34)n2)cc(OC)c1OC [Compound 97]
< 0.954	< 954	< 0.954	0.954 to 5.72	0.954 to 5.72	954 to 5720	< 0.954	5.72 to 8.34	< 0.954	> 10.7	5.72 to 8.34	< 0.954	0.954 to 5.72	0.954 to 5.72	COc1cc(Nc2ncnc(Nc3cc(-c4ccccc4)n[nH]3)n2)cc(OC)c1OC [Compound 102]
1.04 to 6.26	1040 to 6260	1.04 to 6.26	> 11.7	1.04 to 6.26	< 1040	9.13 to 11.7	> 11.7	> 11.7	> 11.7	> 11.7	9.13 to 11.7	1.04 to 6.26	6.26 to 9.13	COc1cccc(Nc2ncnc(Nc3cc(OC)c(OC)c(OC)c3)n2)c1 [Compound 87]
0.968 to 5.81	> 10900	0.968 to 5.81	> 10.9	> 10.9	968 to 5810	> 10.9	> 10.9	> 10.9	> 10.9	> 10.9	0.968 to 5.81	0.968 to 5.81	> 10.9	COc1cc(Nc2ncnc(Nc3cc(OC)c(OC)c(OC)c3)n2)cc(OC)c1 [Compound 86]
< 1.04	< 1040	< 1.04	1.04 to 6.26	< 1.04	< 1040	< 1.04	9.13 to 11.7	> 11.7	> 11.7	1.04 to 6.26	1.04 to 6.26	< 1.04	< 1.04	COc1cc(Nc2ncnc(Nc3ccc(C)c(O)c3)n2)cc(OC)c1OC [Compound 83]
